Patent US20150011566A1, “N-PHENYLPIPERAZINE DERIVATIVES THAT ARE ANTAGONISTS OF A1A, A1D ADRENOCEPTORS AND 5-HT1A RECEPTORS FOR THE TREATMENT OF BENIGN PROSTATE HYPERPLASIA, PHARMACEUTICAL COMPOSITIONS CONTAINING THE SAME” (UNIVERSIDADE FEDERAL DO RIO DE JANEIRO-UFRJ, priority 2012, published 2015)
pKi: −log10 of the molar value. Marks after values point to notes of the source that are not given here.

What was measured:
D2-Like receptors = D2-Like receptors (Rattus norvegicus, UniProt P61169); assay: D2-like receptors binding assay, [3H]-YM 09151-2 (rat striatal membranes); details: Table 15; for pKi: Cheng-Prusoff
Sequence of D2-Like receptors (P61169 whole entry): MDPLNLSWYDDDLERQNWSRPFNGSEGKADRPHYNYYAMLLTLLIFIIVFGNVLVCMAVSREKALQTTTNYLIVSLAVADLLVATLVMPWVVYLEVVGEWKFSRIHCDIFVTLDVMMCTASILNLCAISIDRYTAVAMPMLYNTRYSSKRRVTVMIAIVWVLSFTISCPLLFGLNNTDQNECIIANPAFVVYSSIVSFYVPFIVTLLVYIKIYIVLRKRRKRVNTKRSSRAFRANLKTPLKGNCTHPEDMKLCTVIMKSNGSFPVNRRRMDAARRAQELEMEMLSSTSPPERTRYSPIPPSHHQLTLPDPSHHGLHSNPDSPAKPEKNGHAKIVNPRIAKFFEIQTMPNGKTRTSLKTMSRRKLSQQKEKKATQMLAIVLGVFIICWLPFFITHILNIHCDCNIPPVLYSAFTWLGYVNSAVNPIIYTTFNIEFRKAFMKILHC
Procedure: Briefly, organs were homogenized for 30 seconds three times in Fisatom in 50 mM Tris-HCl, MgCl2 8 mM, 5 mM EDTA (pH 7.4 at 4° C.) and then centrifuged at 48,000×gav (20 minutes 4° C.). The pellet was resuspended in 50 mM Tris-HCl, 8 mM MgCl2, 5 mM EDTA (pH 7.4 at 37° C.), incubated at 37° C. for 10 minutes and centrifuged twice more. The final pellet was resuspended in the same buffer at a concentration of 1.5 mL/g tissue.
Non-specific binding was measured in the presence of 30 μM sulpiride. Assays were performed in triplicate.
The radioactivity retained on the filters was then determined in a liquid scintillation counter (Packard Tri-Carb 1600 TR). For these receptors were also determined IC50 and Ki parameters.

α1D receptors = target: T1, α1D receptors (Homo sapiens, UniProt P25100); assay: Cell proliferation in vitro, DU-145 cells stimulated with phenylephrine (MTT); type: cell-based; details: for Proliferation percentage in relation to basel (100%) in the presence of LDT's, α1D: 48 h; for inhibition of the effect of the α1D receptors stimulus on proliferation: LDT3 50 nM, LDT66 20 nM
T1 construct: endogenous in cells; host or cells: DU-145
T1 sequence (P25100 1-572): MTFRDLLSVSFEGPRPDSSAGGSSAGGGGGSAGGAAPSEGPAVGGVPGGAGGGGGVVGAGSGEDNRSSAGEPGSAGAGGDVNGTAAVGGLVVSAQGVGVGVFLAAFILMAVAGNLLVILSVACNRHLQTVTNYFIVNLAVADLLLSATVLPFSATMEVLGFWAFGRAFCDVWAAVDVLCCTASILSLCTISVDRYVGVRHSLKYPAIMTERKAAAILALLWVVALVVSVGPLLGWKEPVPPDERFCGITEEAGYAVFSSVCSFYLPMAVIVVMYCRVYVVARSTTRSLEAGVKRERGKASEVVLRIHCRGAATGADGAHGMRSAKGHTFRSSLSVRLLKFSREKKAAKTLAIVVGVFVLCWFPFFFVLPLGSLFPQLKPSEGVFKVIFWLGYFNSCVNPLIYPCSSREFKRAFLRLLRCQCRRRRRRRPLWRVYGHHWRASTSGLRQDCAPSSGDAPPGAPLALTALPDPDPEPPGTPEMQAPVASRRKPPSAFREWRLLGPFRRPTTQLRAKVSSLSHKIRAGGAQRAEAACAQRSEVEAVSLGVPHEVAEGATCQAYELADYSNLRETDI
Procedure: (§1) Human prostate cancer cells (DU-145) were cultured in medium (RPMI 1640) until confluence. Then the cells were dissociated, plated (5×10^3 cells/well) and maintained in medium free of fetal bovine serum for 24 hours. […] Cell proliferation was assessed by using the MTT technique (MOSMANN, T. Immunol Methods. 16; 65 (1-2):55-63, 1983).

5-HT1A receptors = target: T2, 5-HT1A receptors (Homo sapiens, UniProt P08908); assay: Cell proliferation in vitro, DU-145 cells stimulated with 5-HT (MTT); type: cell-based; details: for Proliferation percentage in relation to basel (100%) in the presence of LDT's, 5HT1A: 48 h; for inhibition of the effect of the 5-HT1A receptors stimulus on proliferation: LDT3 50 nM, LDT66 20 nM
T2 construct: endogenous in cells; host or cells: DU-145
T2 sequence (P08908 1-422): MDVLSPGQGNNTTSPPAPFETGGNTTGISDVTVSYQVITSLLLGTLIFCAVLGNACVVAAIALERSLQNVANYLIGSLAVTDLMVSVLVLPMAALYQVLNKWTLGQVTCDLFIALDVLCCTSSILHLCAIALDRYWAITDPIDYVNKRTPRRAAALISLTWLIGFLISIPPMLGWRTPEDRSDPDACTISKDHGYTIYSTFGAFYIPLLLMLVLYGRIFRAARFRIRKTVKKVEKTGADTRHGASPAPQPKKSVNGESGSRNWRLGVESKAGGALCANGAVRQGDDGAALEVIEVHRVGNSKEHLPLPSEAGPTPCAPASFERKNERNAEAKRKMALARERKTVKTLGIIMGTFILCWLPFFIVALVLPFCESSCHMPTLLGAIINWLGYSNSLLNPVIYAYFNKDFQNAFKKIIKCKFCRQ
Procedure: as §1

[1] = Acute toxicity test in Swiss mice (body temperature, behaviour for 14 days); type: in vivo; details: n=6; for T (° C.) Basal Measure: body temperature before treatment; for T (° C.) 30′ after LDT / T (° C.) 60′ after LDT: body temperature, 100 mg/kg ip
Procedure: Swiss mice (female, 25-30 g, 6 animals per condition) were treated with LDT via intraperitoneal with LTD's at a dose of […] and observed for 14 days in the behavioral framework according to described method (LORKE, D., Arch Toxicol, 54 (4): 275-87, 1983, modified). The temperature was measured by retal probe before and after 30 and 60 min of described treatment.

α1D adrenoceptors = target: T3, α1D adrenoceptors (Rattus norvegicus, UniProt P23944); assay: Phenylephrine-induced contraction inhibition in rat aorta (isometric contraction, Schild KB); type: cell-based; details: ratio of EC50 in presence and absence of test substance, 2 nM
T3 construct: the rat thoracic aorta corresponds to a tissue expressing mainly α1D-adrenoceptors; from tissue; host or cells: rat thoracic aorta rings
T3 sequence (P23944 1-561): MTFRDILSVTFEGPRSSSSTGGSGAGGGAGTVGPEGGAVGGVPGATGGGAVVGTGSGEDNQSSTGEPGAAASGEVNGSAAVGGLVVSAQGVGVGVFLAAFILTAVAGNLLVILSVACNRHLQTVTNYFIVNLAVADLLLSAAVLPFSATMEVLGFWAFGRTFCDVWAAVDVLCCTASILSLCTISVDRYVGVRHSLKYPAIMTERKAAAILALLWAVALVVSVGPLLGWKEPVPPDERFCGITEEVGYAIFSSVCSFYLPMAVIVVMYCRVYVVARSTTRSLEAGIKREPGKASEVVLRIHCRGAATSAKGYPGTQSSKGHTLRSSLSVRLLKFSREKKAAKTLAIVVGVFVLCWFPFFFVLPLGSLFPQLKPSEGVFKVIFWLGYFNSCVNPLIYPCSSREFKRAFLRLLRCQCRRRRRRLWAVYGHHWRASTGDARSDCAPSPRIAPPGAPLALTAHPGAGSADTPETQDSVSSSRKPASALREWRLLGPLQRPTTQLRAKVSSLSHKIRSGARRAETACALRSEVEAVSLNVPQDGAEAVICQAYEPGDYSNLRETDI

[2] = DU-145, phenylephrine 3 μM + test substance 50 nM
[3] = DU-145, 5-HT 1 μM + test substance 50 nM

Row | SMILES | -log IC50 (M) (D2-Like receptors) | pKi (D2-Like receptors) | Proliferation percentage in relation to basel (100%) in the presence of LDT's, 5HT1A (5-HT1A receptors; [3]) | T (° C.) Basal Measure [1] [°C] | T (° C.) 30′ after LDT [1] [°C] | T (° C.) 60′ after LDT [1] [°C] | further results
1 | CCCCCCCN1CCN(c2ccccc2OC)CC1 [LDT 67] | 7.47 ± 0.07 | 8.05 |  |  |  |  | 
2 | COc1ccc(CCN2CCN(c3ccccc3OC)CC2)cc1OC [LDT 5] |  | 7.00 | 118.8 ± 9.9% | 35.00 | 35.50 | 35.17 | Proliferation percentage in relation to basel (100%) in the presence of LDT's, α1D (α1D receptors; [2]): 117.3 ± 8.9%
3 | COc1cccc(CCN2CCN(c3ccccc3OC)CC2)c1 [LDT 3] |  |  | 96.9 ± 5.8^b % | 35.33 | 35.50 | 35.50 | Proliferation percentage in relation to basel (100%) in the presence of LDT's, α1D (α1D receptors; DU-145, phenylephrine 3 μM + test substance 500 nM): 99.2 ± 5.8^a %; inhibition of the effect of the α1D receptors stimulus on proliferation (α1D receptors): inhibited the effect; inhibition of the effect of the 5-HT1A receptors stimulus on proliferation (5-HT1A receptors): inhibited the effect
4 | CCCCCN1CCN(c2ccccc2OC)CC1 [LDT 65] |  |  |  | 37.17 | 37.17 | 37.17 | 
5 | CCOc1ccccc1N1CCN(CCc2ccc3c(c2)OCO3)CC1 [LDT 8] |  |  |  | 35.67 | 35.67 | 35.50 | Proliferation percentage in relation to basel (100%) in the presence of LDT's, α1D (α1D receptors; DU-145, phenylephrine 3 μM + test substance 5 nM): 124.05 ± 9.6%; Proliferation percentage in relation to basel (100%) in the presence of LDT's, 5HT1A (5-HT1A receptors; DU-145, 5-HT 1 μM + test substance 5 nM): 138.4 ± 42.9%
6 | CCCCCCCCN1CCN(c2ccccc2OC)CC1 [LDT 68] | 7.49 ± 0.09 | 8.05 |  |  |  |  | 
7 | CCOc1ccccc1N1CCN(CCc2ccc(OC)c(OC)c2)CC1 [LDT 245] |  |  |  |  |  |  | CR ± EPM (α1D adrenoceptors): 3.9 ± 1.0
8 | CCCCCCN1CCN(c2ccccc2OC)CC1 [LDT 66] | 6.92 ± 0.11 | 7.40 | 110.8 ± 7.7^b % | 37.00 | 37.50 | 37.33 | Proliferation percentage in relation to basel (100%) in the presence of LDT's, α1D (α1D receptors; [2]): 76 ± 7.7^a %; inhibition of the effect of the α1D receptors stimulus on proliferation (α1D receptors): inhibited the effect; inhibition of the effect of the 5-HT1A receptors stimulus on proliferation (5-HT1A receptors): inhibited the effect
